Source: patent US5698669A, “Tri-arginine insulins” (Eli Lilly and Company, priority 1995, dated 1997)
One block for each substance: values may come before it.

Legend:
[1] = molecular target: des(64) human proinsulin (human) (UniProt P01308)
[2] = system: New Zealand White rabbits; test: Blood glucose in fasted rabbits after subcutaneous injection of 40 U/ml insulin solutions; assay type: in vivo, rabbit; conditions: for hypoglycemic activity: statement in words, animal model; for Percent of Original Blood Glucose: added zinc 0 mg/ml, 0.2 U/kg s.c., rabbits, n = 10
Description: Solutions were prepared containing various amounts of zinc (0-2.4 mg/ml) in the form of zinc chloride. Glacial acetic acid was used to solublize each of the solutions at a final pH range of pH 4-6.
New Zealand White rabbits, mostly female, all weighing 2.7-4 kg, 0.5-4 years of age and fasted 16 hours prior to administration of sample were used for testing.
At various times, 100 μl volumes of blood were obtained from the marginal ear veins, mixed with 900 μl volumes of anticoagulant (EDTA-sodium fluoride) and analyzed for glucose content. The glucose values were standardized to reflect percent of original blood glucose measured prior to sample injection.

[3] = standardized value used for formulating 40 U/ml solutions; cited from earlier work
[4] = molecular target: human proinsulin (human) (UniProt P01308)

conversion of des(64) human proinsulin to tri-arg insulin (preparative HPLC, yield of product) [1]: 0.94 g
Substance: pork trypsin (Sigma) (from UniProt P00761) (enzyme)

Substance: Split(64) HPI: human proinsulin wherein the peptide bond between Lys-64 and Arg-65 is broken
hypoglycemic activity [2]: hypoglycemic activity of its own

Substance: Des(64) HPI: split(64) proinsulin wherein Lys-64 is removed
Percent of Original Blood Glucose ([2]; 4 hours after injection): 99.6%
Percent of Original Blood Glucose ([2]; 6 hours after injection): 90.0%
hypoglycemic activity [2]: hypoglycemic activity of its own

Substance: human insulin: natural human insulin, reference for biopotency
standardized value (potency per mass) [3]: 28.85 U/mg

Substance: Pseudomonas aeruginosa Endopeptidase-Lys-C (Promega) (enzyme)
conversion of human proinsulin to split(64) proinsulin (preparative HPLC, yield of product) [4]: 237 mg
